Test results published in patent US20090324500A1, “SCREEN FOR INFLAMMATORY RESPONSE MODULATORS” (priority 2006, published 2009).

Tested on: neutrophils
Experiment: Tail transection injury in transgenic MPO:GFP zebrafish larvae, neutrophil counts at the site of injury
Type: in vivo
Description: AB strain zebrafish from existing aquarium stocks were maintained according to standard protocols. A BAC containing approx 130 kB of 5′ promoter sequence to the MPO gene was identified (zC91B8). This BAC was modified to contain an in-frame GFP sequence beginning at the translation start site of the MPO gene by recombinase activity as previously described (Lee, E. C. et al (2001) Genomics 73, 56-65). EL250 cells required for the recombination step were a kind gift of Dr. Neal Copeland, National Cancer Institute, Frederick, […]., USA. Insertion of the GFP sequence was confirmed by co-insertion of a kanamycin resistance gene, which in turn was flanked by FRT sites leading to its easy removal before introduction into the zebrafish. As part of this process a vector was created consisting of a truncated portion of the Bluescript vector, into which we had blunt cloned a construct consisting of GFP and the FRT-flanked Kanamycin resistance gene, all of which was flanked by MPO homology arms. Using this construct, we were able to add a Nuclear Localising Sequence corresponding to that used in the Clontech vector pEYFPnuc by PCR and self ligation.
The modified BACs were injected into fertilised AB zebrafish embryos at the 1-2 cell stage, and larvae screened at 36-48 hours for the presence of fluorescence. Fluorescent larvae were grown to maturity and either in- or out-crossed to identify germ cell carriage of the transgene.
A BAC containing over 100 kb of sequence 5′ to the Zebrafish MPO promoter was identified and modified to contain an in frame GFP sequence (FIG. 3). This was then injected into zebrafish embryos at the 1-cell stage and a transgenic line created. GFP expression recapitulates the expression of myeloperoxidase in cells whose morphology is consistent with neutrophil granulocytes (see FIG. 4). When these fish are injured, neutrophils accumulate at the site of injury over time (FIGS. 5 and 6).
Neutrophil number at the site of injury following tail transection can be assessed either by manual counting (FIG. 7a) or by automated image analysis (FIG. 7b).
Manipulation of the inflammatory response in transgenic zebrafish has been performed exemplifying the role of manipulation of granulocyte apoptosis in regulating the resolution of inflammation. […] P<0.05 for t=24, zVD.fmk treated vs all other groups (1 way ANOVA with Bonferroni post test correction).
In FIG. 8b counts of fluorescent cells in individual larvae were performed for fish in the presence or absence of the bacterial product Lipopolysaccharide (LPS). LPS was added at 6 hours post injury (hpi), and counts made at 6 and 24 hpi. […] In FIG. 8c, Pyocyanin (a bacterial pigment with pro-apoptotic effects on neutrophils) was added at 4 hpi, and counts made at 8 hpi.

Compound: CC(C)[C@H](NC(=O)OCc1ccccc1)C(=O)NC(CC(=O)O)C(=O)CF (stereo partly shown) [zVD.fmk]
- neutrophil numbers at the inflammatory site (resolution of inflammation) (between 6 hours and 24 hours after injury, FIG. 8a, P<0.05 at t=24 vs all other groups): persistence of neutrophil numbers
- effect on granulocyte apoptosis (transgenic zebrafish, FIG. 8a): delays apoptosis

Compound: Cn1c2cccc(=O)c-2nc2ccccc21 [Pyocyanin]
- absolute cell counts (neutrophil numbers) (added at 4 hpi, counts at 8 hpi, FIG. 8c): reduce neutrophil numbers

Compound: Lipopolysaccharide [LPS]
- % reduction in neutrophil numbers (added at 6 hpi, counts at 6 and 24 hpi, vs untreated fish, p<0.05, FIG. 8b): significantly lower
